Source: ChEMBL document CHEMBL3046026, “Evaluation of the curative and protectant activity of fungicides and fungicide-adjuvant mixtures on Phomopsis cane and leaf spot of grape: A controlled environment study” (2007)
Active and inactive are the calls of the source. The calls are words filed in the database; no cut-off is given here.

Columns and labels:
Diaporthe ampelina [1] = assay: Antifungal activity against Diaporthe ampelina infected grape plant assessed as decrease in lesions on leaf at 0.25 […] a.i./ha treated 3 to 6 hr prior to inoculation followed by 24 hr wetness period measured after 4 weeks relative to control in presence of regulaid; format: functional, organism-based
Diaporthe ampelina [2] = assay: Antifungal activity against Diaporthe ampelina infected grape plant assessed as decrease in lesions on leaf at 0.25 […] a.i./ha incubated for 24 hr prior to treatment with 20 hr wetness period followed by 4 hr of drying period measured after 4 weeks relative to control in presence of regulaid; format: functional, organism-based
Diaporthe ampelina [3] = assay: Antifungal activity against Diaporthe ampelina infected grape plant assessed as decrease in lesions on leaf at 0.25 […] a.i./ha incubated for 20 hr prior to treatment with 16 hr wetness period followed by 4 hr of drying period measured after 4 weeks relative to control in presence of regulaid; format: functional, organism-based
Diaporthe ampelina [4] = assay: Antifungal activity against Diaporthe ampelina infected grape plant assessed as disease severity at internodes at 0.25 […] a.i./ha incubated for 20 hr prior to treatment with 16 hr wetness period followed by 4 hr of drying period measured after 4 weeks in presence of regulaid (reference value: 7.3%); format: functional
Diaporthe ampelina [5] = assay: Antifungal activity against Diaporthe ampelina infected grape plant assessed as disease severity at internodes at 0.25 […] a.i./ha treated 3 to 6 hr prior to inoculation followed by 24 hr wetness period measured after 4 weeks (reference value: 2.6%); format: functional
Diaporthe ampelina [6] = assay: Antifungal activity against Diaporthe ampelina infected grape plant assessed as re-isolation of mycelium from infected vines at 0.25 […] a.i./ha treated for weeks in presence of regulaid followed by inoculation on medium measured after 72 hr (reference value: 62.5%); format: functional
Diaporthe ampelina [7] = assay: (§1) Antifungal activity against Diaporthe ampelina infected grape plant assessed as disease severity at internodes at 0.25 […] a.i./ha incubated for 24 hr prior to treatment with 20 hr wetness period followed by 4 hr of drying period measured after 4 weeks in presence of regulaid (reference value: 4.7%); format: functional
Diaporthe ampelina [8] = assay: Antifungal activity against Diaporthe ampelina infected grape plant assessed as disease severity at internodes at 0.25 […] a.i./ha treated 3 to 6 hr prior to inoculation followed by 24 hr wetness period measured after 4 weeks in presence of regulaid (reference value: 2.9%); format: functional
Diaporthe ampelina [9] = assay: as §1, with “for 48” for “for 24”, “with 24” for “with 20”, “by 24” for “by 4”, “value: 12.2%)” for “value: 4.7%)”; format: functional
Diaporthe ampelina [10] = assay: Antifungal activity against Diaporthe ampelina infected grape plant assessed as decrease in lesions on leaf at 0.25 […] a.i./ha treated 3 to 6 hr prior to inoculation followed by 24 hr wetness period measured after 4 weeks relative to control; format: functional, organism-based
Diaporthe ampelina [11] = assay: Antifungal activity against Diaporthe ampelina infected grape plant assessed as disease severity at internodes at 1.7 m3/ha incubated for 24 hr prior to treatment with 20 hr wetness period followed by 4 hr of drying period measured after 4 weeks in presence of regulaid (reference value: 3.2%); format: functional
Diaporthe ampelina [12] = assay: Antifungal activity against Diaporthe ampelina infected grape plant assessed as decrease in lesions on leaf at 0.25 […] a.i./ha incubated for 48 hr prior to treatment with 24 hr wetness period followed by 24 hr of drying period measured after 4 weeks relative to control in presence of regulaid; format: functional, organism-based
Diaporthe ampelina [13] = assay: Antifungal activity against Diaporthe ampelina infected grape plant assessed as decrease in lesions on leaf at 1.7 m3/ha incubated for 24 hr prior to treatment with 20 hr wetness period followed by 4 hr of drying period measured after 4 weeks relative to control in presence of regulaid; format: functional, organism-based

SMILES: CO/C=C(/C(=O)OC)c1ccccc1Oc1cc(Oc2ccccc2C#N)ncn1 [AZOXYSTROBIN]
- Activity (Diaporthe ampelina [1]): Active
- Activity (Diaporthe ampelina [2]): inactive
- Activity (Diaporthe ampelina [3]): inactive
- Activity (Diaporthe ampelina [4]): 5.3%
- Activity (Diaporthe ampelina [5]): 0.3%
- Activity (Diaporthe ampelina [6]): 8.4%
- Activity (Diaporthe ampelina [7]): 4.9%
- Activity (Diaporthe ampelina [8]): 0.1%
- Activity (Diaporthe ampelina [9]): 3.7%
- Activity (Diaporthe ampelina [10]): Active
- Activity (Diaporthe ampelina [11]): 3.2%
- Activity (Diaporthe ampelina [12]): inactive
- Activity (Diaporthe ampelina [13]): inactive
